According to EP1881000A1, “Conjugates of 2-fluoro-2-deoxy-glucose and their uses as anti cancer agents” (INSTITUT NATIONAL DE LA SANTE ET DE LA RECHERCHE MEDICALE …, priority 2006, dated 2008):

How the values were obtained:
[1] = system: M4Beu, a human melanoma cell line; experiment: In vitro cytotoxicity assay (resazurin reduction test); assay type: cell-based; settings: 48-h continuous drug exposure
From the text: (§1) Normal human fibroblasts were purchased from Promocell (Heidelberg, Germany). This frozen culture was obtained from foreskin waste and the cells used in this work were from the seventh to twelfth passage of the culture. M4Beu, a human melanoma cell line, was established in the laboratory of Dr. J. F. Doré (INSERM, Unit 218, Lyon, France) from metastatic biopsy specimens and maintained in cell culture for almost 20 years in our lab. Breast cancer adenocarcinoma MCF 7, prostatic adenocarcinoma PC 3, colon adenocarcinoma DLD-1, lung non-small cell carcinoma A 549, ovary adenocarcinoma PA1 human cell lines and L 929 murine cell line were purchased from the European Collection of Cell Cultures (ECACC; Salisbury, United Kingdom). Murine Melanoma B16 was purchased from American Type of Culture Collection (ATCC, Manassas, USA) and murine colon carcinoma cell line CT-26 was obtained from Dr I. J. Fidler (University of Texas M.D. Anderson Cancer Center, Houston).
(§2) Stock cell cultures were maintained as monolayers in 75cm^2 culture flasks in Glutamax Eagle's minimum essential medium with Earle's salts (MEM; Gibco BRL, Paisley, UK) supplemented with 10% fetal calf serum (Sigma, St Quentin Fallavier, France), 1 mM sodium pyruvate (Gibco), 1X vitamins solution (Gibco), 1X non essential amino acids solution (Gibco) and 4 µg/ml of gentamicine (Gibco). Cells were grown at 37°C in a humidified atmosphere containing 5% CO2.
(§3) Cells were plated at a density of 5 x 10^3 cells per well in 96-well microplates (Nunclon™, Nunc, Roskilde, Denmark) in 150 µl of culture medium and were allowed to adhere for 16 h before treatment with the compound tested.
(§4) Stock solution of each compound was prepared in dimethylsulfoxide (DMSO) and kept at -20°C. until use. The percentage of DMSO was kept at 0.5% (v/v) whichever the concentration tested. […] Fifty microliters of a 4X solution in MEM was then added and a 48-h continuous drug exposure protocol was used. Then, the cytotoxic effect of compounds on tumour cells was tested by using Resazurin reduction test.
(§5) Resazurin was identified as the Alamar blue dye (O'Brien, J. et al.; European Journal of Biochemistry, 267, 5421-6, (2000)). The resazurin reduction test (RRT) was carried out according to the protocol described here. Briefly, plates were rinsed by 200 µl PBS (37° C, Gibco) using a multichannel dispenser (Labsystems, Helsinki, Finland) and emptied by overturning on absorbent toweling. Then, 150 µl of a 25 µg/ml solution of resazurin in MEM without SVF nor Phenol red was added in each well. The plates were incubated 1 h at 37° C. in an humidified atmosphere with 5% of CO2 for fluorescence development by living cells. Fluorescence was then measured on the automated 96-well plate reader Fluoroskan Ascent FL™ (Labsystems) using an excitation wavelength of 530 nm and an emission one of 590 nm.
(§6) Cytotoxic activity has been tested against the six human tumour cell lines breast adenocarcinoma MCF-7, colon adenocarcinoma DLD-1, ovary adenocarcinoma PA1, prostatic adenocarcinoma PC3, lung carcinoma A549, melanoma M4Beu and a primary culture of human fibroblasts.

[2] = system: Normal human fibroblasts; experiment: as above; assay type: cell-based; settings: Fibroblast, 48-h continuous drug exposure
From the text: as §1, §2, §3, §4, §5, §6

[3] = system: lung non-small cell carcinoma A 549; experiment: as above; assay type: cell-based; settings: Homo sapiens; A549; 48-h continuous drug exposure
From the text: as §1, §2, §3, §4, §5, §6

[4] = system: colon adenocarcinoma DLD-1; experiment: as above; assay type: cell-based; settings: Homo sapiens, DLD1, 48-h continuous drug exposure
From the text: as §1, §2, §3, §4, §5, §6

[5] = system: ovary adenocarcinoma PA1; experiment: as above; assay type: cell-based; settings: Homo sapiens, 48-h continuous drug exposure
From the text: as §1, §2, §3, §4, §5, §6

[6] = system: Murine Melanoma B16; experiment: as above; assay type: cell-based; settings: Mus musculus, 48-h continuous drug exposure
From the text: as §1, §2, §3, §4, §5

[7] = system: murine colon carcinoma cell line CT-26; experiment: as above; assay type: cell-based; settings: Mus musculus; CT26; 48-h continuous drug exposure
From the text: as §1, §2, §3, §4, §5

[8] = system: B16 melanoma; experiment: Antitumour activity in B16-melanoma bearing mice, IP chemotherapy protocol; assay type: in vivo, C57BL6J male mice; settings: for Life span of the animals: B16 melanoma-bearing mice; for antitumour activity according to the NCI criteria decisions: in words
Description: Drugs were dissolved in a mixture of dimethylacetamide (Sigma) and oleic macrogolglycerides (Labrafil® M1944Cs, Gattefossé) (10:90%, vol/vol).
It is performed in tumour-bearing mice following an IP chemotherapy protocol.
To establish B16 melanoma model, 3 x 10^5 B16F0 cells (ATCC, Manassas, USA; in vitro doubling time of 16 hours) were suspended in 100 µL of phosphate buffer solution (PBS®, life Technologies) and injected into the subcutaneous tissue of the right flank of C57BL6J male mice, 6-weeks-old (Charles River, France) on day zero.
For both molecules and both animal models, treatment was initiated eight days post tumour grafting, when the tumours had reached a measurable size, corresponding to a calculated tumour weight (CTW) of 40 and 70 mg for B16 and CT-26 models respectively.
Animals were then randomly divided in both treatment and control groups. […] Two dosages have been evaluated, MTD and 0.75 MTD
Mice were weighed and observed every two days over a 30-day -period to evaluate general clinical state. Length and width of tumours were measured every two days over a 30-day-period using a dedicated slide calliper.
The Calculated Tumour Weight (CTW) of each tumour was determined according to the formula: CTW(mg) = L × 1^2 /2 [formula] with L = length in mm and 1= width in mm.
For subcutaneously growing tumours, antitumour activity is often assessed by using the log10 cell kill (LCK) which is calculated from the following formula: LCK = T-C value in days/3.32 × Td [formula] T is the median time (in days) required for the treatment group tumours to reach a predetermined CTW (e.g. 1000 mg). C is the median time (in days) required for the control group tumours to reach the same CTW. Td is the tumour volume doubling time (in days) estimated from the best fit straight line from a log-linear growth plot of the control group tumours in exponential growth.
An increase in life span was defined by the ratio of the median survival of drug-treated mice (Mt) versus controls (Mc): a survival Mt/Mc equal or higher than 125 % was sought
Mean weight loss of the group was used to evaluate treatment side effects. A mean body weight loss of greater 20% was considered to indicate an excessively toxic dosage.

[9] = B16 melanoma, dosage not stated
[10] = B16 melanoma, 75% MTD, IP D8, D12, D16
[11] = B16 melanoma, MTD, IP D8, D12, D16

| Structure (SMILES) | IC50 [1] | IC50 [2] | IC50 [3] | IC50 [4] | IC50 [5] | IC50 [6] | IC50 [7] | LCK [8, 9] | Life span of the animals [8] | Antitumour Efficacy [8, 10] | LCK [8, 10] | Survival Mt/Mc [8, 10] | Weight loss (% max) [8, 10] | Antitumour Efficacy [8, 11] | LCK [8, 11] | Survival Mt/Mc [8, 11] | Weight loss (% max) [8, 11] | antitumour activity according to the NCI criteria decisions ([8]; B16 melanoma) | tumour growth inhibition (CTW time-course) ([8]; B16 melanoma, both MTD and 0,75 MTD dosages, vs non-treated and vehicle-treated groups, p< 0.05) | antitumour activity according to the NCI criteria decisions ([8]; B16 melanoma, listed as Chlorambucil) |
| --- | --- | --- | --- | --- | --- | --- | --- | --- | --- | --- | --- | --- | --- | --- | --- | --- | --- | --- | --- | --- |
| CC(=O)OC[C@H]1O[C@@H](NC(=O)CNC(=O)CCCc2ccc(N(CCCl)CCCl)cc2)[C@H](F)[C@@H](OC(C)=O)[C@@H]1OC(C)=O [Compound 21a, N-[2-(3,4,6-tri-O-acetyl-2-deoxy-2-fluoro-β-D-glucopyranosylamino)-2-oxoethyl]-4-{4-[bis(2-chloroethyl)amino]phenyl}butanamide] | 6.8 ± 0.9 µM | 4.1 ± 0.1 µM | 5 ± 2 µM | 4 ± 3 µM | 1000 ± 100 nM | 6.4 ± 0.6 µM | 7 ± 1 µM | around 1.1 | increased | + (0.7 < LCK < 1.2 active drug (+)) | 1.10 | 1.18 | 16% | + (0.7 < LCK < 1.2 active drug (+)) | 1.02 | 0.74 | 15.7% | active | – | – |
| CC(=O)OC[C@H]1O[C@@H](Oc2ccc(NC(=O)CNC(=O)CCCc3ccc(N(CCCl)CCCl)cc3)cc2)[C@H](F)[C@@H](OC(C)=O)[C@@H]1OC(C)=O [Compound 40a, N-{2-[4-(3,4,6-tri-O-acetyl-2-deoxy-2-fluoro-β-D-glucopyranosyloxy)phenyl]amino-2-oxoethyl}-4-{4-[bis(2-chloroethyl)amino]phenyl}butanamide] | 15 ± 6 µM | 17 ± 6 µM | 10 ± 5 µM | 6 ± 2 µM | 1500 ± 500 nM | 10 ± 0.5 µM | 4.3 ± 0.2 µM | around 1.5 | increased | ++ (1.7 < LCK < 1.9 highly active drug (++)) | 1.81 | 1.5 | 13.6% | ++ (1.7 < LCK < 1.9 highly active drug (++)) | 1.53 | 0.8 | 16.9% | highly active | – | – |
| O=C(O)CCCc1ccc(N(CCCl)CCCl)cc1 [chlorambucil, reference compound] | > 100 µM | 99 ± 2 µM | 43 ± 14 µM | 47 ± 17 µM | 2800 ± 400 nM | 42.6 ± 9.5 µM | 6.3 ± 0.4 µM | < 0.7 | not | - (LCK < 0.7 inactive drug (-)) | 0.05 | 0.67 | 7.3% | - (LCK < 0.7 inactive drug (-)) | 0.24 | 1 | 13.6% | inactive | failed to induce any tumour growth inhibition | failed in exhibiting any antitumour activity |
